# Reference: US11254663B2 (BRISTOL-MYERS SQUIBB COMPANY, priority 2019, dated 2022)
# Target: FXR (Homo sapiens (Human), UniProt Q96RI1)
# Experiment: transient human FXR/Gal4-luciferase reporter assay
# Assay type: cell-based
# Settings: not given
# Procedure, shortened: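 HEK293 cells stably carrying a 5×Gal4 response element–firefly luciferase reporter were transiently transfected overnight with a Gal4 DBD–human FXR LBD fusion plasmid. Compound was added in DMSO and cells were incubated overnight at 37 °C, 5% CO2. Activity was read as Steady-Glo luminescence.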
# Chain of FXR (Q96RI1 262-486): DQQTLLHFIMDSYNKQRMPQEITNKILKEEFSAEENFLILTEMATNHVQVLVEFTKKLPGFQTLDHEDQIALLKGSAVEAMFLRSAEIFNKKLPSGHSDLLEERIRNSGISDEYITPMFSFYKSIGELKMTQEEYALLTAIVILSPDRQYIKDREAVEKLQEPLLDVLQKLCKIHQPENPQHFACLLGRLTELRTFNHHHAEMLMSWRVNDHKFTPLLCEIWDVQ
row,Structure (SMILES),EC50 [nM]
1,"CCOc1ncc(-c2cccc(N(CC34CCC(c5nc(C(C)(C)C)no5)(CC3)CC4)C(=O)C3(C)COC3)c2)cn1 [Example 503, N-((4-(3-(tert-butyl)-1,2,4-oxadiazol-5-yl)bicyclo[2.2.2]octan-1-yl)methyl)-N-(3-(2-ethoxypyrimidin-5-yl)phenyl)-3-methyloxetane-3-carboxamide]",1580
2,"Cc1nc2ccc(-c3cccc(N(CC45CCC(c6nnc(C7CC7)o6)(CC4)CC5)C(=O)C4CC(C(F)F)C4)c3)cc2s1 (stereo not drawn) [Example 562, N-((4-(5-cyclopropyl-1,3,4-oxadiazol-2-yl)bicyclo[2.2.2]octan-1-yl)methyl)-3-(difluoromethyl)-N-(3-(2-methylbenzo[d]thiazol-6-yl)phenyl)cyclobutane-1-carboxamide]",318
3,CC(C)(O)c1ccc(-c2cccc(N(CC34CCC(c5noc(C(C)(C)F)n5)(CC3)CC4)C(=O)N3CCN(CC(F)(F)F)CC3)c2)cc1 [Example 645],229
4,"Cn1nc(C2CC2)cc1C12CCC(CN(C(=O)C34CC(F)(C3)C4)c3cc(-c4ccc(NS(C)(=O)=O)cc4)ccn3)(CC1)CC2 [Example 547, N-((4-(3-cyclopropyl-1-methyl-1H-pyrazol-5-yl)bicyclo[2.2.2]octan-1-yl)methyl)-3-fluoro-N-(4-(4-(methylsulfonamido)phenyl)pyridin-2-yl)bicyclo[1.1.1]pentane-1-carboxamide]",251
5,"COc1ncc(-c2cccc(N(CC34CCC(c5ccc(C(F)(F)F)cn5)(CC3)CC4)C(=O)C34CC(F)(C3)C4)c2)cn1 [Example 494, 3-fluoro-N-(3-(2-methoxypyrimidin-5-yl)phenyl)-N-((4-(5-(trifluoromethyl)pyridin-2-yl)bicyclo[2.2.2]octan-1-yl)methyl)bicyclo[1.1.1]pentane-1-carboxamide]",516

# Same assay, conditions: Gal4-hFXR fusion construct, HEK293 reporter cells; response relative to 8 μM GW-4064
row,Structure (SMILES),EC50 [nM]
1,"CC(C)(C#N)Oc1ccc(-c2ccnc(N(CC34CCC(c5ccc(C(C)(F)F)cn5)(CC3)CC4)C(=O)OC(C)(C)C(F)(F)F)c2)cc1 [Example 606, 1,1,1-trifluoro-2-methylpropan-2-yl (4-(4-((2-cyanopropan-2-yl)oxy)phenyl)pyridin-2-yl)((4-(5-(1,1-difluoroethyl)pyridin-2-yl)bicyclo[2.2.2]octan-1-yl)methyl)carbamate]",95
2,"COc1cc(-c2cccc(N(CC34CCC(c5nnc(C6CC6)o5)(CC3)CC4)C(=O)C34CC(F)(C3)C4)c2)ccn1 [Example 342, N-((4-(5-cyclopropyl-1,3,4-oxadiazol-2-yl)bicyclo[2.2.2]octan-1-yl)methyl)-3-fluoro-N-(3-(2-methoxypyridin-4-yl)phenyl)bicyclo[1.1.1]pentane-1-carboxamide]",120
3,"CC(C)(C)c1noc(C23CCC(CN(C(=O)C45CC(F)(C4)C5)c4cccc(-c5ncc(OC(F)F)cn5)c4)(CC2)CC3)n1 [Example 371, N-((4-(3-(tert-butyl)-1,2,4-oxadiazol-5-yl)bicyclo[2.2.2]octan-1-yl)methyl)-N-(3-(5-(difluoromethoxy)pyrimidin-2-yl)phenyl)-3-fluorobicyclo[1.1.1]pentane-1-carboxamide]",45
4,"O=C(N(CC12CCC(c3nc(C4CC4)no3)(CC1)CC2)c1cccc(-c2cc(C(F)(F)F)c3ncnn3c2)c1)C12CC(F)(C1)C2 [Example 263, N-((4-(3-cyclopropyl-1,2,4-oxadiazol-5-yl)bicyclo[2.2.2]octan-1-yl)methyl)-3-fluoro-N-(3-(8-(trifluoromethyl)-[1,2,4]triazolo[1,5-a]pyridin-6-yl)phenyl)bicyclo[1.1.1]pentane-1-carboxamide]",2710
5,"CC(F)(F)c1nc(C23CCC(CN(C(=O)C45CC(F)(C4)C5)c4ccc(F)c(C5CC5)c4)(CC2)CC3)no1 [Example 574, N-(3-cyclopropyl-4-fluorophenyl)-N-((4-(5-(1,1-difluoroethyl)-1,2,4-oxadiazol-3-yl)bicyclo[2.2.2]octan-1-yl)methyl)-3-fluorobicyclo[1.1.1]pentane-1-carboxamide]",244
6,"CC(C)(C)c1nc(C23CCC(CN(C(=O)C45CC(F)(C4)C5)c4cccc(-c5ccc(OC(F)F)cn5)c4)(CC2)CC3)no1 [Example 455, N-((4-(5-(tert-butyl)-1,2,4-oxadiazol-3-yl)bicyclo[2.2.2]octan-1-yl)methyl)-N-(3-(5-(difluoromethoxy)pyridin-2-yl)phenyl)-3-fluorobicyclo[1.1.1]pentane-1-carboxamide]",17
7,"CS(=O)(=O)Nc1ccc(-c2cccc(N(CC34CCC(c5nc(C6CC6)no5)(CC3)CC4)C(=O)C34CC(F)(C3)C4)c2)cc1 [Example 246, N-((4-(3-cyclopropyl-1,2,4-oxadiazol-5-yl)bicyclo[2.2.2]octan-1-yl)methyl)-3-fluoro-N-(4′-(methylsulfonamido)-[1,1′-biphenyl]-3-yl)bicyclo[1.1.1]pentane-1-carboxamide]",66
8,"CC1(c2nc(C34CCC(CN(C(=O)C56CC(F)(C5)C6)c5cccc(-c6cnc(C7CC7)nc6)c5)(CC3)CC4)no2)CC1 [Example 403, N-(3-(2-cyclopropylpyrimidin-5-yl)phenyl)-3-fluoro-N-((4-(5-(1-methylcyclopropyl)-1,2,4-oxadiazol-3-yl)bicyclo[2.2.2]octan-1-yl)methyl)bicyclo[1.1.1]pentane-1-carboxamide]",100
9,"CS(=O)(=O)Nc1ccc(-c2cccc(N(CC34CCC(c5nc(C6CC6)no5)(CC3)CC4)C(=O)C34CC(F)(C3)C4)c2)cn1 [Example 270, N-((4-(3-cyclopropyl-1,2,4-oxadiazol-5-yl)bicyclo[2.2.2]octan-1-yl)methyl)-3-fluoro-N-(3-(6-(methylsulfonamido)pyridin-3-yl)phenyl)bicyclo[1.1.1]pentane-1-carboxamide]",442
10,"CC(C)(O)c1ccc(-c2cccc(N(CC34CCC(c5noc(C(F)(F)F)n5)(CC3)CC4)C(=O)NCC3CC4(CC4)C3)c2)cc1 [Example 614, 1-(4′-(2-hydroxypropan-2-yl)-[1,1′-biphenyl]-3-yl)-3-(spiro[2.3]hexan-5-ylmethyl)-1-((4-(5-(trifluoromethyl)-1,2,4-oxadiazol-3-yl)bicyclo[2.2.2]octan-1-yl)methyl)urea]",171
11,"CC(=O)Nc1cn2nc(-c3cccc(N(CC45CCC(c6nc(C7CC7)no6)(CC4)CC5)C(=O)C45CC(F)(C4)C5)c3)ccc2n1 [Example 336, N-(3-(2-acetamidoimidazo[1,2-b]pyridazin-6-yl)phenyl)-N-((4-(3-cyclopropyl-1,2,4-oxadiazol-5-yl)bicyclo[2.2.2]octan-1-yl)methyl)-3-fluorobicyclo[1.1.1]pentane-1-carboxamide]",1230
12,"COc1ccc(-c2cccc(N(CC34CCC(c5nnc(C6CC6)o5)(CC3)CC4)C(=O)C34CC(F)(C3)C4)c2)cn1 [Example 343, N-((4-(5-cyclopropyl-1,3,4-oxadiazol-2-yl)bicyclo[2.2.2]octan-1-yl)methyl)-3-fluoro-N-(3-(6-methoxypyridin-3-yl)phenyl)bicyclo[1.1.1]pentane-1-carboxamide]",154
13,"CC(C)Oc1ccc(-c2ccnc(N(CC34CCC(c5noc(C(C)(F)F)n5)(CC3)CC4)C(=O)N3CCOCC3)c2)cc1 [Example 626, N-((4-(5-(1,1-difluoroethyl)-1,2,4-oxadiazol-3-yl)bicyclo[2.2.2]octan-1-yl)methyl)-N-(4-(4-isopropoxyphenyl)pyridin-2-yl)morpholine-4-carboxamide]",72
14,"CCOc1ncc(-c2cccc(N(CC34CCC(c5noc(C6(C)CC6)n5)(CC3)CC4)C(=O)C34CC(F)(C3)C4)c2)cn1 [Example 396, N-(3-(2-ethoxypyrimidin-5-yl)phenyl)-3-fluoro-N-((4-(5-(1-methylcyclopropyl)-1,2,4-oxadiazol-3-yl)bicyclo[2.2.2]octan-1-yl)methyl)bicyclo[1.1.1]pentane-1-carboxamide]",46
15,"COc1ccc(-c2cccc(N(CC34CCC(c5ccc(C6(C#N)CC6)cc5)(CC3)OC4)C(=O)C34CC(F)(C3)C4)c2)cc1 [Example 349, N-((1-(4-(1-cyanocyclopropyl)phenyl)-2-oxabicyclo[2.2.2]octan-4-yl)methyl)-3-fluoro-N-(4′-methoxy-[1,1′-biphenyl]-3-yl)bicyclo[1.1.1]pentane-1-carboxamide]",130
16,"CCOc1ncc(-c2cccc(N(CC34CCC(c5ncc(OC)cn5)(CC3)CC4)C(=O)C34CC(F)(C3)C4)c2)cn1 [Example 552, N-(3-(2-ethoxypyrimidin-5-yl)phenyl)-3-fluoro-N-((4-(5-methoxypyrimidin-2-yl)bicyclo[2.2.2]octan-1-yl)methyl)bicyclo[1.1.1]pentane-1-carboxamide]",359
17,"CC(C)(O)CN1CC=C(c2cccc(N(CC34CCC(c5noc(C(C)(C)F)n5)(CC3)CC4)C(=O)C34CC(F)(C3)C4)c2)CC1 [Example 663, 3-fluoro-N-((4-(5-(2-fluoropropan-2-yl)-1,2,4-oxadiazol-3-yl)bicyclo[2.2.2]octan-1-yl)methyl)-N-(3-(1-(2-hydroxy-2-methylpropyl)-1,2,3,6-tetrahydropyridin-4-yl)phenyl) bicyclo[1.1.1]pentane-1-carboxamide]",159
18,"CCOc1ncc(-c2cccc(N(CC34CCC(c5noc(C(C)C)n5)(CC3)CC4)C(=O)C34CC(F)(C3)C4)c2)cn1 [Example 429, N-(3-(2-ethoxypyrimidin-5-yl)phenyl)-3-fluoro-N-((4-(5-isopropyl-1,2,4-oxadiazol-3-yl)bicyclo[2.2.2]octan-1-yl)methyl)bicyclo[1.1.1]pentane-1-carboxamide]",46
19,"CC(C)c1nc(C23CCC(CN(C(=O)C45CC(F)(C4)C5)c4cccc(-c5ccc(OC(F)F)cc5)c4)(CC2)CC3)no1 [Example 436, N-(4′-(difluoromethoxy)-[1,1′-biphenyl]-3-yl)-3-fluoro-N-((4-(5-isopropyl-1,2,4-oxadiazol-3-yl)bicyclo[2.2.2]octan-1-yl)methyl)bicyclo[1.1.1]pentane-1-carboxamide]",46
